Data from patent publication US20250360134A1, “6-6 OR 5-6 FUSED BICYCLIC COMPOUNDS COMPRISING A PYRI(MI)DINE RING USEFUL IN THE|TREATMENT OF INFECTIOUS DISEASES” (INSTITUT NATIONAL DE LA SANTE ET DE LA RECHERCHE MEDICALE …, priority 2020, published 2025).
Structures can show the parent of a compound that is named as a salt. Where two headings read alike, the source gives them in different places.

What was measured:
[1] = tested on: human telomeric sequence F21T; experiment: FRET-melting, F21T; conditions: K+ condition, 2 μM compound, 0.2 μM oligonucleotide
[2] = tested on: Trypanosoma 9 and 11 chromosomic sequence FTrypBT; experiment: FRET-melting, FTrypBT; conditions: K+ condition, 2 μM compound, 0.2 μM oligonucleotide
[3] = tested on: human duplex sequence FdxT; experiment: FRET-melting, FdxT; conditions: duplex control, K+ condition, 2 μM compound, 0.2 μM oligonucleotide
[4] = tested on: Plasmodium falciparum 3D7; experiment: In vitro antiplasmodial activity, SYBR Green I, strain 3D7; conditions: Plasmodium falciparum, 3D7, 48 h, read-out: IC50 Plasmodium falciparum 3D7, chloroquine-sensitive strain 3D7, 48-hour incubation
Description: (§1) The in vitro antiplasmodial activities were tested over concentrations ranging from 39 to 40 μm against culture-adapted Plasmodium falciparum: reference strains 3D7 and W2. […] The parasites were cultivated in RPMI medium (Sigma-Aldrich, Lyon, France) supplemented with 0.5% Albumax I (Life Technologies Corporation, Paisley, UK), hypoxanthine (Sigma-Aldrich), and gentamicin (Sigma-Aldrich) with human erythrocytes and were incubated at 37° C. in a candle jar, as described in Desjardins R E et al., Antimicrob Agents Chemother, 1979; 16:710-18.
(§2) The P. falciparum drug susceptibility test was carried out in 96-well flat bottom sterile plates in a final volume of 250 μL. After a 48-hour incubation with the drugs, quantities of DNA in treated and control cultures of parasites in human erythrocytes were quantified using the SYBR Green I (Sigma-Aldrich) fluorescence-based method as described in Bennett T N et al, Antimicrob Agents Chemother, 2004; 48:1807-10. Briefly, after incubation, plates were frozen at −20° C. until use. Plates were then thawed for 2 hours at room temperature, and 100 μL of each homogenized culture was transferred to a well of a 96-well flat bottom sterile black plate (Nunc, Inc., Rochester, NY) that contained 100 μL of the SYBR Green I lysis buffer (2×SYBR Green, 20 mM Tris base pH 7.5, 5 mM EDTA, 0.008% w/v saponin, 0.08% w/v Triton X-100). […] Plates were incubated for 1 hour at room temperature and then read on a fluorescence plate reader (Tecan, Grödig, Austria) using excitation and emission wavelengths of 485 and 535 nm, respectively. Concentrations inhibiting 50% of the parasite's growth (half maximal inhibitory concentration or IC50 values) were then calculated from the obtained experimental results by non-linear regression analysis of data from dose-response curves, using TableCurve 2D version 5.0 software (Systat Software, San Jose, CA). IC50 values are reported as means calculated from three independent experiments, as described in H. Kaddouri et al., Antimicrob.

[5] = Cytotoxicity evaluation, MTT; format: cell-based, human; conditions: HepG2 cells (hepatocarcinoma-derived, ATCC HB-8065); human HepG2 cells, 72 hours, MTT
Description: The aim of this assay was to evaluate the impact of metabolic activation of the tested compounds on cell viability.
A cytotoxicity evaluation was performed using the method reported in Emami S A et al., Iran J Basic Med Sci 2012; 15:807-11 to determine the cytotoxic concentrations 50% (CC50) and using doxorubicin as a cytotoxic reference compound. These assays were performed in human HepG2 cells. HepG2 cells were purchased from ATCC (ref HB-8065). These cells are a commonly used human hepatocarcinoma-derived cell line that has characteristics similar to those of primary hepatocytes. These cells express many hepatocyte-specific metabolic enzymes, thus enabling the cytotoxicity of tested product metabolites to be evaluated. Briefly, cells in 100 μl of complete RPMI medium [RPMI supplemented with 10% FCS, 1% 1-glutamine (200 mM), penicillin (100 U/ml), and streptomycin (100 μg/ml)] were inoculated into each well of 96-well plates and incubated at 37° C. in a humidified chamber in 6% CO2. After 24 hours, 100 μl of medium with test compound at various concentrations dissolved in DMSO (final concentration less than 0.5% v/v) was added, and the plates were incubated for 72 hours at 37° C. Duplicate assays were performed for each sample. Each well was microscopically examined for precipitate formation before the medium was aspirated from the wells. After aspiration, 100 μl of MTT solution (0.5 mg/ml in medium without FCS) were then added to each well. Cells were incubated for 2 hours at 37° C. MTT solution was removed, and DMSO (100 μl) was added to dissolve the resulting blue formazan crystals. Plates were shaken vigorously (300 rpm) for 5 min. The absorbance was measured at 570 nm with 630 nm as reference wavelength in a BIO-TEK ELx808 Absorbance Microplate Reader. DMSO was used as blank and doxorubicin (Sigma-Aldrich) as positive control. Cell viability was calculated as percentage of control (cells incubated without compound).

[6] = tested on: T. brucei brucei AnTat 1.9; experiment: In vitro antitrypanosomal activity, Alamar Blue assay; format: cell-based, Trypanosoma brucei brucei; conditions: Trypanosoma brucei, read-out: IC50 T. brucei brucei
Description: The effects of the tested compounds on the growth of T. brucei brucei were assessed using an Alamar Blue® assay described in B. Raz et al., Acta Trop. 1997, 68, 139. T. brucei brucei AnTat 1.9 (IMTA, Antwerpen, Belgium) was cultured in MEM with Earle's salts, supplemented according to the protocol disclosed in T. Baltz et al., EMBO J. 1985, 4, 1273, with the following modifications: 0.5 mM mercaptoethanol (Sigma-Aldrich), 1.5 mM 1-cysteine (Sigma-Aldrich), 0.05 mM bathocuproine sulfate (Sigma-Aldrich), and 20% heat-inactivated horse serum (Gibco, France) at 37° C. and 5% CO2. Samples were incubated at an average density of 2000 parasites/well in sterile 96-well plates (Fisher, France) with various concentrations of compounds dissolved in 0.9% NaCl. All doses were tested in duplicate. Appropriate controls treated with solvents 0.9% NaCl or DMSO or with suramin, pentamidine, eflornithine, and fexinidazole (reference drugs purchased from Sigma-Aldrich and Fluorochem, UK) were added to each set of experiments. After a 69-hour incubation at 37° C., 10 μl of the viability marker Alamar Blue (Fisher) was added to each well, and the plates were incubated for 5 hour. The plates were read in a PerkinElmer ENSPIRE (Germany) microplate reader using an excitation wavelength of 530 nm and an emission wavelength of 590 nm. The IC50 was defined as the concentration of drug necessary to inhibit by 50% the activity of T. brucei brucei compared to the control. IC50 values were calculated using a non-linear regression analysis of dose-response curves performed using GraphPad Prism software (USA). IC50 values were calculated from three independent experiments.

Plasmodium falciparum W2 = experiment: In vitro antiplasmodial activity, SYBR Green I, strain W2; conditions: Plasmodium falciparum, W2, 48 h, read-out: IC50 Plasmodium falciparum W2, chloroquine-resistant strain W2, 48-hour incubation
Description: as §1, §2

[7] = tested on: Plasmodium telomeric sequence FPf8T; experiment: FRET-melting, FPf8T; conditions: K+ condition, 2 μM compound, 0.2 μM oligonucleotide
[8] = tested on: Plasmodium telomeric sequence FPf1T; experiment: FRET-melting, FPf1T; conditions: K+ condition, 2 μM compound, 0.2 μM oligonucleotide
SARS-CoV-2 = experiment: microbe, parasite or virus in culture; format: cell-based; conditions: Severe acute respiratory syndrome coronavirus 2; A549 cells expressing human ACE2, 72 hours after infection, RT-PCR of the N-gene; read-out: IC50 RTqPCR SARS-CoV-2

SMILES	FRET-melting values in K+ conditions at 2 μM ΔTm F21T [1] [°C]	FRET-melting values in K+ conditions at 2 μM ΔTm FtryBT [2] [°C]	FRET-melting values in K+ conditions at 2 μM ΔTm FdxT [3] [°C]	IC50 [4] [nM]	IC50 at 72 h [5] [µM]	IC50 ([6]; 69 h) [nM]	IC50 (Plasmodium falciparum W2) [nM]	FRET-melting values in K+ conditions at 2 μM ΔTm FPf8T [7] [°C]	FRET-melting values in K+ conditions at 2 μM ΔTm FPf1T [8] [°C]	IC50 ([6]; 69-hour incubation, Alamar Blue) [nM]	IC50 (SARS-CoV-2) [nM]
CN1CCN(CCCNCc2ccc(-c3nc(-c4ccc(CNCCCN5CCN(C)CC5)cc4)c4sccc4n3)cc2)CC1 [Compound 30B, 2,4-Bis{4-[(3-(4-methylpiperazin-1-yl)propyl)aminomethyl]phenyl}thieno[3,2-d]pyrimidine oxalate]	14.5	12.8	0.5	10800 ± 2950	18.9	750 ± 100	30	15.2	14.9		
CN(C)CCCNCc1ccc(-c2nc(NCCCN(C)C)nc3ccsc23)cc1 [Compound 31B, 2-(3-Dimethylaminopropylamino)-4-{4-[(4-dimethylaminopropyl)aminomethyl]phenyl}thieno[3,2-d]pyrimidine oxalate]	2.0	1.8	−0.7	40 ± 10	> 60		5690 ± 1210	2.9	1.8	2580 ± 210	
CCN(CC)CCCCNCc1ccc(-c2nc(-c3ccc(CNCCCCN(CC)CC)cc3)c3ccn(-c4ccccc4)c3n2)cc1 [Compound 33B, oxalate]				2470 ± 190			700 ± 150				550
CC(C)N(CCCCCNCc1ccc(-c2nc(-c3ccc(CNCCCCCN(C(C)C)C(C)C)cc3)c3ccn(-c4ccccc4)c3n2)cc1)C(C)C [Compound 34B, oxalate]				930 ± 150			770 ± 70				170
CN(C)CCCCCNCc1ccc(-c2nc(-c3ccccc3)c3ccn(-c4ccc(CNCCCCCN(C)C)cc4)c3n2)cc1 [Compound 35B, oxalate]	27.23	21.55	3.49	6760 ± 470			4740 ± 900	33.76	25.4		560
